ChEMBL document CHEMBL3046163, “Cross-resistance relationships between neonicotinoids and pymetrozine in Bemisia tabaci (Hemiptera: Aleyrodidae)” (2010)
Converted amounts (≈) assume the structure as drawn.

How the values were obtained:
Format in all cases: functional
[1] = tested on: Bemisia tabaci; experiment: Resistance ratio of LC50 for Bemisia tabaci biotype-B B4 (sweet potato whitefly) to LC50 for Bemisia tabaci LABS
[2] = tested on: Bemisia tabaci; experiment: Resistance ratio of LC50 for Bemisia tabaci biotype-B B3 (sweet potato whitefly) to LC50 for Bemisia tabaci LABS
[3] = tested on: Bemisia tabaci; experiment: Resistance ratio of LC50 for Bemisia tabaci biotype-B B2 (sweet potato whitefly) to LC50 for Bemisia tabaci LABS
[4] = tested on: Bemisia tabaci; experiment: Resistance ratio of LC50 for Bemisia tabaci biotype-B B1 (sweet potato whitefly) to LC50 for Bemisia tabaci LABS
[5] = tested on: Bemisia tabaci; experiment: Resistance ratio of LC50 for Bemisia tabaci biotype-Q Q3 (sweet potato whitefly) to LC50 for Bemisia tabaci LABS
[6] = tested on: Bemisia tabaci; experiment: Resistance ratio of LC50 for Bemisia tabaci biotype-Q Q2 (sweet potato whitefly) to LC50 for Bemisia tabaci LABS
[7] = tested on: Bemisia tabaci; experiment: Resistance ratio of LC50 for Bemisia tabaci biotype-Q Q1 (sweet potato whitefly) to LC50 for Bemisia tabaci LABS
[8] = tested on: Bemisia tabaci; experiment: Insecticidal activity against Bemisia tabaci biotype-B B4 (sweet potato whitefly) after 48 hr by leaf-dip bioassay; conditions: biotype-B B4, 48 h
[9] = tested on: Bemisia tabaci; experiment: Insecticidal activity against Bemisia tabaci biotype-B B3 (sweet potato whitefly) after 48 hr by leaf-dip bioassay; conditions: biotype-B B3, 48 h
[10] = tested on: Bemisia tabaci; experiment: Insecticidal activity against Bemisia tabaci biotype-B B2 (sweet potato whitefly) after 48 hr by leaf-dip bioassay; conditions: biotype-B B2, 48 h
[11] = tested on: Bemisia tabaci; experiment: Insecticidal activity against Bemisia tabaci biotype-Q Q3 (sweet potato whitefly) after 48 hr by leaf-dip bioassay; conditions: biotype-Q Q3, 48 h
[12] = tested on: Bemisia tabaci; experiment: Insecticidal activity against Bemisia tabaci biotype-B B1 (sweet potato whitefly) after 48 hr by leaf-dip bioassay; conditions: biotype-B B1, 48 h
[13] = tested on: Bemisia tabaci; experiment: Insecticidal activity against Bemisia tabaci biotype-Q Q2 (sweet potato whitefly) after 48 hr by leaf-dip bioassay; conditions: biotype-Q Q2, 48 h
[14] = tested on: Bemisia tabaci; experiment: Insecticidal activity against Bemisia tabaci LABS (sweet potato whitefly) after 48 hr by leaf-dip bioassay
[15] = tested on: Bemisia tabaci; experiment: Insecticidal activity against Bemisia tabaci biotype-Q Q1 (sweet potato whitefly) after 48 hr by leaf-dip bioassay; conditions: biotype-Q Q1, 48 h
[16] = tested on: Bemisia tabaci; experiment: Selectivity ratio of LC50 for pymetrozine-selected Bemisia tabaci B2 (sweet potato whitefly) to LC50 for Bemisia tabaci B2
[17] = tested on: Bemisia tabaci; experiment: Insecticidal activity against pymetrozine-selected Bemisia tabaci B2 (sweet potato whitefly) after 48 hr by leaf-dip bioassay; conditions: B2, 48 h
[18] = tested on: Bemisia tabaci; experiment: Insecticidal activity against pymetrozine-selected Bemisia tabaci B2 (sweet potato whitefly) after 96 hr by leaf-dip bioassay; conditions: B2, 96 h
[19] = tested on: Bemisia tabaci; experiment: Selectivity ratio of LC50 for thiamethoxam-selected Bemisia tabaci B1B3 (sweet potato whitefly) to LC50 for Bemisia tabaci B1B3
[20] = tested on: Bemisia tabaci; experiment: Insecticidal activity against thiamethoxam-selected Bemisia tabaci B1B3 (sweet potato whitefly) after 96 hr by leaf-dip bioassay; conditions: B1B3, 96 h
[21] = tested on: Bemisia tabaci; experiment: Insecticidal activity against pymetrozine-selected Bemisia tabaci B1B3 (sweet potato whitefly) after 96 hr by leaf-dip bioassay; conditions: B1B3, 96 h
[22] = tested on: Bemisia tabaci; experiment: Insecticidal activity against Bemisia tabaci B1B3 (sweet potato whitefly) after 96 hr by leaf-dip bioassay; conditions: B1B3, 96 h
[23] = tested on: Bemisia tabaci; experiment: Selectivity ratio of LC50 for pymetrozine-selected Bemisia tabaci B1B3 (sweet potato whitefly) to LC50 for Bemisia tabaci B1B3
[24] = tested on: Bemisia tabaci; experiment: Insecticidal activity against Bemisia tabaci biotype-B B4 (sweet potato whitefly) after 96 hr by leaf-dip bioassay; conditions: biotype-B B4, 96 h
[25] = tested on: Bemisia tabaci; experiment: Insecticidal activity against Bemisia tabaci biotype-B B2 (sweet potato whitefly) after 96 hr by leaf-dip bioassay; conditions: biotype-B B2, 96 h
[26] = tested on: Bemisia tabaci; experiment: Insecticidal activity against Bemisia tabaci biotype-B B3 (sweet potato whitefly) after 96 hr by leaf-dip bioassay; conditions: biotype-B B3, 96 h
[27] = tested on: Bemisia tabaci; experiment: Insecticidal activity against Bemisia tabaci biotype-B B1 (sweet potato whitefly) after 96 hr by leaf-dip bioassay; conditions: biotype-B B1, 96 h
[28] = tested on: Bemisia tabaci; experiment: Insecticidal activity against Bemisia tabaci biotype-Q Q3 (sweet potato whitefly) after 96 hr by leaf-dip bioassay; conditions: biotype-Q Q3, 96 h
[29] = tested on: Bemisia tabaci; experiment: Insecticidal activity against Bemisia tabaci biotype-Q Q2 (sweet potato whitefly) after 96 hr by leaf-dip bioassay; conditions: biotype-Q Q2, 96 h
[30] = tested on: Bemisia tabaci; experiment: Insecticidal activity against Bemisia tabaci biotype-Q Q1 (sweet potato whitefly) after 96 hr by leaf-dip bioassay; conditions: biotype-Q Q1, 96 h
[31] = tested on: Bemisia tabaci; experiment: Insecticidal activity against Bemisia tabaci LABS (sweet potato whitefly) after 96 hr by leaf-dip bioassay
[32] = tested on: Bemisia tabaci; experiment: Insecticidal activity against thiamethoxam-selected Bemisia tabaci B1B3 (sweet potato whitefly) after 48 hr by leaf-dip bioassay; conditions: B1B3, 48 h
[33] = tested on: Bemisia tabaci; experiment: Insecticidal activity against pymetrozine-selected Bemisia tabaci B1B3 (sweet potato whitefly) after 48 hr by leaf-dip bioassay; conditions: B1B3, 48 h
[34] = tested on: Bemisia tabaci; experiment: Insecticidal activity against Bemisia tabaci B1B3 (sweet potato whitefly) after 48 hr by leaf-dip bioassay; conditions: B1B3, 48 h

Structure (SMILES)	RatioLC50 [1]	RatioLC50 [2]	RatioLC50 [3]	RatioLC50 [4]	RatioLC50 [5]	RatioLC50 [6]	RatioLC50 [7]	LC50 [8]	LC50 [9]	LC50 [10]	LC50 [11]	LC50 [12]	LC50 [13]	LC50 [14]	LC50 [15]	RatioLC50 [16]	LC50 [17]	RatioLC50 [19]	RatioLC50 [23]	also measured
C/C(=N\C#N)N(C)Cc1ccc(Cl)nc1 [ACETAMIPRID]	15	30	1.2	2.1	57	20	0.95	54 µg/mL (≈ 243 µM)	110 µg/mL (≈ 494 µM)	4.3 µg/mL (≈ 19.3 µM)	210 µg/mL (≈ 943 µM)	7.6 µg/mL (≈ 34.1 µM)	74 µg/mL (≈ 332 µM)	3.7 µg/mL (≈ 16.6 µM)	3.5 µg/mL (≈ 15.7 µM)					
O=[N+]([O-])/N=C1\NCCN1Cc1ccc(Cl)nc1 [IMIDACLOPRID]	230	230	3.5	1.2	850	420	1.8	1100 µg/mL (≈ 4300 µM)	1100 µg/mL (≈ 4300 µM)	17 µg/mL (≈ 66.5 µM)	4100 µg/mL (≈ 16000 µM)	5.8 µg/mL (≈ 22.7 µM)	2000 µg/mL (≈ 7820 µM)	4.8 µg/mL (≈ 18.8 µM)	8.5 µg/mL (≈ 33.2 µM)	0.92	23 µg/mL (≈ 90 µM)			
CC1=NNC(=O)N(/N=C/c2cccnc2)C1 [PYMETROZINE]	520	1100	92	1.6	1900	390	5.8									54		7.9	23	LC50 [18]: 15000 µg/mL (≈ 69100 µM); LC50 [20]: 1100 µg/mL (≈ 5060 µM); LC50 [21]: 3200 µg/mL (≈ 14700 µM); LC50 [22]: 140 µg/mL (≈ 644 µM); LC50 [24]: 1200 µg/mL (≈ 5520 µM); LC50 [25]: 220 µg/mL (≈ 1010 µM); LC50 [26]: 1200 µg/mL (≈ 5520 µM); LC50 [27]: 3.9 µg/mL (≈ 18 µM); LC50 [28]: 4600 µg/mL (≈ 21200 µM); LC50 [29]: 930 µg/mL (≈ 4280 µM); LC50 [30]: 14 µg/mL (≈ 64.4 µM); LC50 [31]: 2.4 µg/mL (≈ 11 µM)
CN1COCN(Cc2cnc(Cl)s2)/C1=N\[N+](=O)[O-] [THIAMETHOXAM]	73	150	2.9	6.3	490	240	3.7	300 µg/mL (≈ 1030 µM)	100 µg/mL (≈ 343 µM)	12 µg/mL (≈ 41.1 µM)	2000 µg/mL (≈ 6860 µM)	4.5 µg/mL (≈ 15.4 µM)	980 µg/mL (≈ 3360 µM)	4.1 µg/mL (≈ 14.1 µM)	15 µg/mL (≈ 51.4 µM)	0.29	8.6 µg/mL (≈ 29.5 µM)	7	4.5	LC50 [32]: 450 µg/mL (≈ 1540 µM); LC50 [33]: 290 µg/mL (≈ 994 µM); LC50 [34]: 64 µg/mL (≈ 219 µM)
